Experimental data published in patent US20250228865A1, “COMPOUNDS FOR ENHANCING READ THROUGH OF GENES CONTAINING PREMATURE TERMINATION CODONS AND METHODS FOR MAKING AND USING THE SAME” (Sanofi US Services Inc., priority 2022, published 2025).

Test system: CFTR R1162X
Experiment: Functional CFTR channel activity, TECC-24 electrophysiology, 16HBE cells (CFTR R1162X readthrough)
Format: cell-based, human
Protocol: 16HBE human bronchial epithelial cells were seeded onto Transwell 24-well filter inserts coated with human collagen type IV. Cells were seeded 7 days prior to functional testing at a density of 1.7×10^5 cells onto the “apical” chamber filter of the Transwell insert. Cells were grown as submerged cultures (200 μL apical/700 μL basolateral) in Minimal Essential Medium (MEM) containing 10% qualified Fetal Bovine Serum and 1% Penicillin/Streptomycin and incubated at 37° C. and 5% CO2. Growth media on cells was replenished with fresh media every 1-3 days prior to test agent treatment day. After 7 days in culture, the CFTR-mediated chloride (Cl^−) equivalent current (Ieq) of the 16HBE cells was recorded, which may typically form electrically tight epithelia with a transepithelial resistance (Rt) of 2000-6000 Ω·cm2 as described below. Forty-eight hours prior to electrophysiological measurements, fresh growth media containing the test agents was applied to both chambers separating filter bound epithelial monolayer.
On the day of electrophysiology studies, electrodes of a “Multi-(24-channel) transepithelial current clamp amplifier” (MTECC-24 (TECC-24 for short), EP Devices, Belgium) were soaked in an assay buffer (see below for composition) for at least 2 hours using 24-well Transwell plates without inserts. Cell culture media was replaced in the Transwell assay plates with assay buffer (see below) and the plates were mounted onto a custom-built automated robotic assay platform (Yamaha RCX240S controller) with heated plate holders set at 37° C. for 60 min. After equilibration, transepithelial potential difference (PD) and resistance (Rt) was monitoredat ˜5 min intervals using the TECC-24 transepithelial current clamp. Electrode potential differences were monitored for each pair of Ag/AgCl voltage electrodes by taking voltage measurements from a control (“blank”) plate with matching buffer solutions and 16HBE cells that were not treated with any test agent. PD values for each electrode pair were subtracted from the blank plate from that of the test plates at each time point. Ieq was calculated from the corrected PD values and Rt using Ohm's law. Ieq values were slope corrected to account for measurement drift over time using the equation: Slope corrected value=calculated Ieq−((time x slope)+y-intercept) with the slope and y-intercept calculated from the data points captured during the initial baseline period and following addition of the CFTR inhibitor.
The equivalent current (Ieq) traces associated with CFTR channel activation were plotted as baseline subtracted mean±standard deviation from 3-4 separate wells on the 24-well Transwell (n=3-4). There are 4 recording periods, with the first set of data points recorded baseline Ieq currents prior to sequential activation of available CFTR channels with forskolin (10 μM) and then in combination with potentiator VX-770/ivacaftor (1 μM). Recorded the last set of data points in the presence of CFTR inhibitor CFTRinh-172 (20 μM) to confirm that currents are mediated via activation of CFTR channels. The test agents and control/reference compounds were pre-diluted to 10-fold concentrations in assay buffer and added manually using a multi-channel pipette to both the basolateral and apical side of the membrane (test plates only). Employed CFTR-mediated changes in Ieq, (i.e. forskolin/VX-770 activated currents) to measure functional CFTR surface expression or treatment-related functional rescue of mutant CFTR.
The magnitude of test agent mediated enhancement of functional CFTR currents was calculated by comparing forskolin/VX-770 stimulated Ieq relative to baseline/CFTRinh-172 Ieq following 48 hour pretreatment with test agent(s) and normalizing to the forskolin/VX-770 stimulated Ieq determined following 48 hour pretreatment with a maximally effective concentration a reference control aminoglycoside agent (typically 110 μM G418). […]

[1] = RTM 1 uM, no eRF3 modulator, ELX-02 100 uM
[2] = RTM conc. —, eRF3 modulator (CC-90009) 1 uM, ELX-02 100 uM
[3] = RTM 1 uM, eRF3 modulator (CC-90009) 1 uM, ELX-02 100 uM
[4] = RTM 5 uM, no eRF3 modulator, G418 10 uM

OCc1cn(-c2ncc(OCc3c(Cl)cccc3Cl)cn2)cn1 [drawing 797]
Currents (% of 110 μM G418 (Max effect)) (RTM 0.5 uM, no eRF3 modulator, G418 10 uM): 64 % of 110 μM G418 (Max effect)

OCc1cn(-c2ncc(OCc3c(Cl)cccc3Cl)cn2)cn1 [drawing 798]
Currents (% of 110 μM G418 (Max effect)) (RTM 0.5 uM, eRF3 modulator (CC-90009) 1 uM, G418 10 uM): 472 % of 110 μM G418 (Max effect)

OCc1cn(-c2ncc(OCc3c(Cl)cccc3Cl)cn2)cn1 [drawing 799]
Currents (% of 110 μM G418 (Max effect)) (RTM 0.5 uM, no eRF3 modulator, ELX-02 100 uM): 51 % of 110 μM G418 (Max effect)

OCc1cn(-c2ncc(OCc3c(Cl)cccc3Cl)cn2)cn1 [drawing 800]
Currents (% of 110 μM G418 (Max effect)) (RTM 0.5 uM, eRF3 modulator (CC-90009) 1 uM, ELX-02 100 uM): 473 % of 110 μM G418 (Max effect)

OCc1ccn(-c2ncc(OCc3c(Cl)cccc3Cl)cn2)n1 [drawing 801]
Currents (% of 110 μM G418 (Max effect)) [1]: 102 % of 110 μM G418 (Max effect)

OCc1ccn(-c2ncc(OCc3c(Cl)cccc3Cl)cn2)n1 [drawing 802]
Currents (% of 110 μM G418 (Max effect)) [2]: 63 % of 110 μM G418 (Max effect)

OCc1ccn(-c2ncc(OCc3c(Cl)cccc3Cl)cn2)n1 [drawing 803]
Currents (% of 110 μM G418 (Max effect)) [3]: 300 % of 110 μM G418 (Max effect)

Cc1cccc(C(F)(F)F)c1COc1ccc(-c2nc(CO)n[nH]2)cc1 [drawing 804]
Currents (% of 110 μM G418 (Max effect)) [1]: 106 % of 110 μM G418 (Max effect)

Cc1cccc(C(F)(F)F)c1COc1ccc(-c2nc(CO)n[nH]2)cc1 [drawing 805]
Currents (% of 110 μM G418 (Max effect)) [2]: 63 % of 110 μM G418 (Max effect)

Cc1cccc(C(F)(F)F)c1COc1ccc(-c2nc(CO)n[nH]2)cc1 [drawing 806]
Currents (% of 110 μM G418 (Max effect)) [3]: 269 % of 110 μM G418 (Max effect)

O=C1N[C@H](CO)CN1c1ccc(OCc2c(Cl)cccc2Cl)cn1 [drawing 807]
Currents (% of 110 μM G418 (Max effect)) [1]: 70 % of 110 μM G418 (Max effect)

O=C1N[C@H](CO)CN1c1ccc(OCc2c(Cl)cccc2Cl)cn1 [drawing 808]
Currents (% of 110 μM G418 (Max effect)) [2]: 63 % of 110 μM G418 (Max effect)

O=C1N[C@H](CO)CN1c1ccc(OCc2c(Cl)cccc2Cl)cn1 [drawing 809]
Currents (% of 110 μM G418 (Max effect)) [3]: 266 % of 110 μM G418 (Max effect)

OCc1ncn(-c2ncc(OCc3c(Cl)cccc3C(F)(F)F)cn2)n1 [drawing 810]
Currents (% of 110 μM G418 (Max effect)) (RTM 3 uM, no eRF3 modulator, ELX-02 100 uM): 102 % of 110 μM G418 (Max effect)

OCc1ncn(-c2ncc(OCc3c(Cl)cccc3C(F)(F)F)cn2)n1 [drawing 811]
Currents (% of 110 μM G418 (Max effect)) [2]: 77 % of 110 μM G418 (Max effect)

OCc1ncn(-c2ncc(OCc3c(Cl)cccc3C(F)(F)F)cn2)n1 [drawing 812]
Currents (% of 110 μM G418 (Max effect)) (RTM 3 uM, eRF3 modulator (CC-90009) 1 uM, ELX-02 100 uM): 288 % of 110 μM G418 (Max effect)

OCc1cn(-c2ncc(OCc3c(Cl)cccc3Cl)cn2)cn1 [drawing 813]
Currents (% of 110 μM G418 (Max effect)) (RTM 0.5 uM, no eRF3 modulator, Paramomycin 2000 uM): 7 % of 110 μM G418 (Max effect)

OCc1cn(-c2ncc(OCc3c(Cl)cccc3Cl)cn2)cn1 [drawing 814]
Currents (% of 110 μM G418 (Max effect)) (RTM 0.5 uM, eRF3 modulator (CC-90009) 1 uM, Paramomycin 2000 uM): 183 % of 110 μM G418 (Max effect)

Cc1cccc(C(F)(F)F)c1COc1ccc(N2CC(CO)OC2=O)cc1 (centres unmarked) [drawing 815]
Currents (% of 110 μM G418 (Max effect)) (RTM 1 uM, no eRF3 modulator, G418 10 uM): 76 % of 110 μM G418 (Max effect)

Cc1cccc(C(F)(F)F)c1COc1ccc(N2CC(CO)OC2=O)cc1 (centres unmarked) [drawing 816]
Currents (% of 110 μM G418 (Max effect)) (RTM 1 uM, eRF3 modulator (CC-90009) 1 uM, G418 10 uM): 423 % of 110 μM G418 (Max effect)

O=C1O[C@H](CO)CN1c1ccc(OCc2c(Cl)cccc2Cl)cc1 [drawing 817]
Currents (% of 110 μM G418 (Max effect)) [4]: 54 % of 110 μM G418 (Max effect)

O=C1O[C@H](CO)CN1c1ccc(OCc2c(Cl)cccc2Cl)cc1 [drawing 818]
Currents (% of 110 μM G418 (Max effect)) (RTM 5 uM, eRF3 modulator (CC-90009) 10 uM, G418 10 uM): 314 % of 110 μM G418 (Max effect)

O=C1O[C@@H](CO)CN1c1ccc(OCc2c(Cl)cccc2Cl)cc1 [drawing 819]
Currents (% of 110 μM G418 (Max effect)) [4]: 81 % of 110 μM G418 (Max effect)
